Measurements reported in patent US5358946A, “Heterocycle-substituted amides, carbamates and ureas as agents for the treatment of atherosclerosis” (The Du Pont Merck Pharmaceutical Company, priority 1992, dated 1994).

Target: T1, acyl-CoA: cholesterol acyltransferase (ACAT) (Rattus norvegicus, UniProt Q7TQM4)
T1 construct: Microsomes were obtained by differential centrifugation; from tissue; host or cells: liver microsomes of male Sprague Dawley rats
T1 sequence (Q7TQM4 1-524): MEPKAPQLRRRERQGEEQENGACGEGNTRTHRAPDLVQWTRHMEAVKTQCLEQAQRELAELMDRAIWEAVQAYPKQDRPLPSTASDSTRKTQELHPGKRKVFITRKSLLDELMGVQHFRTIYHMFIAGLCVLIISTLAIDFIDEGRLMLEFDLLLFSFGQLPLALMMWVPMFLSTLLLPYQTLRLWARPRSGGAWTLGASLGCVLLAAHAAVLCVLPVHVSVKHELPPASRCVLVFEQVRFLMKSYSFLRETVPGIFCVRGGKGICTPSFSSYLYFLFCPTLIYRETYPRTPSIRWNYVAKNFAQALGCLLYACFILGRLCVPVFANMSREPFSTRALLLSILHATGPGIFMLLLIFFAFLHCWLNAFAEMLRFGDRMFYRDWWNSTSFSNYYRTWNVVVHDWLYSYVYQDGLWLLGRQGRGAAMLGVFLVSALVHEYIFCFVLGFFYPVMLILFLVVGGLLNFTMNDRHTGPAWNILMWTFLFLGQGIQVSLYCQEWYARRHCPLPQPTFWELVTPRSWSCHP
Assay: Inhibition of Acyl-CoA: Cholesterol Acyltransferase (ACAT) in hepatic microsomes (in vitro hepatic ACAT activity)
Format: biochemical, rat (male Sprague Dawley)
Settings: 14C-oleoyl-CoA, 15 min preincubation at 37° C., pH 7.4, read-out: Inhibition of Cholesterol Esterification (IC50)
Description: The ability of the compounds to inhibit ACAT, the enzyme responsible for the intracellular synthesis of cholesteryl esters, was tested as follows. Male Sprague Dawley rats weighing 150-300 g, were fed rat chow ad libitum. The animals were fasted for twenty-four hours prior to being sacrificed by decapitation. The livers were perfused in situ with 50 ml of cold 0.25M sucrose, excised, and homogenized in three volumes of 0.1M phosphate buffer, pH 7.4, that contained 0.5 mM EDTA (ethylenediaminetetraacetic acid), 1.0 mM glutathione, 0.25M sucrose and […]. Microsomes were obtained by differential centrifugation; the supernatant from an initial spin at 15,000×g for 15 minutes was centrifuged at 105,000×g for 1 hour to pellet the microsomes. The microsomes were suspended in homogenization buffer, reisolated by centrifugation, and stored at -70° C. Microsomes were used within one month of preparation.
The control assay in a final volume of 200 μl consisted of 200 μg of microsomal protein, 75μ<^14 C-oleoyl-CoA (10,000 dpm/nmol) in 0.1M phosphate, pH 7.4, that contained 1 mM glutathione. Compounds were added in 5 μl of DMSO (dimethyl sulfoxide) and additional controls were run with DMSO only. All components, except the oleoyl-CoA, were preincubated for 15 min. at 37° C. prior to the initiation of the reaction by the addition of oleoyl-CoA. The assay was terminated after 10 min. by the addition of 4 ml of chloroform:methanol (2:1, v/v). 20,000 dpm of 3H-choledsteryl oleate and 10 μg of unlabeled cholesteryl oleate and oleic acid were added as an internal standard and carriers, respectively. After allowing 10 min. for lipid extraction, 0.8 ml of deionized water was added to separte the solution into two phases. The lower chloroform phase was collected, dried under nitrogen and resuspended in 2 ml of hexane:diethyl ether (97:3 v/v). The lipids were then loaded onto BAKERSBOND spe* silica gel columns. Extracts were collected in scintillation vials and counted for radioactivity. The specific activity of ACAT in the control incubation averaged 260 pmol/min/mg microsomal protein.

In order of rising IC50:
1. O=C(Nc1ccc(F)cc1F)N(CCCCCSc1nc(-c2ccccc2)c(-c2ccccc2)[nH]1)CCN1CCOCC1 [Example 161, N'-(2,4-difluorophenyl)-N-[5-(4,5-diphenyl-1H-imidazol-2-ylthio)pentyl]-N-[2-(4-morpholinyl)ethyl]-urea]  66 nM
2. COc1ccc(-c2nc(SCCCCCN(CCOCCO)C(=O)NC(C)C)[nH]c2-c2ccc(OC)cc2)cc1 [Example 284]  480 nM
3. CCCCN(C)CCN(CCOCCSc1nc(-c2ccc(OC)cc2)c(-c2ccc(OC)cc2)[nH]1)C(=O)Nc1ccc(F)cc1F [Example 32, N-[2-(2-(4,5-bis(4-methoxyphenyl)-1H-imidazol-2-ylthio)ethoxy)ethyl]-N-[2-(N-butyl-N-methylamino)ethyl]-N'-(2,4-difluorophenyl) urea]  1500 nM
4. CCCN(CCOC(=O)CSc1nc(-c2ccccc2)c(-c2ccccc2)[nH]1)C(=O)Nc1ccc(F)cc1F [Example 421]  4100 nM

Target: T2, ACAT (Mus musculus, UniProt Q61263)
T2 construct: endogenous in cells; host or cells: J774.A1 (murine macrophage-like)
T2 sequence (Q61263 1-540): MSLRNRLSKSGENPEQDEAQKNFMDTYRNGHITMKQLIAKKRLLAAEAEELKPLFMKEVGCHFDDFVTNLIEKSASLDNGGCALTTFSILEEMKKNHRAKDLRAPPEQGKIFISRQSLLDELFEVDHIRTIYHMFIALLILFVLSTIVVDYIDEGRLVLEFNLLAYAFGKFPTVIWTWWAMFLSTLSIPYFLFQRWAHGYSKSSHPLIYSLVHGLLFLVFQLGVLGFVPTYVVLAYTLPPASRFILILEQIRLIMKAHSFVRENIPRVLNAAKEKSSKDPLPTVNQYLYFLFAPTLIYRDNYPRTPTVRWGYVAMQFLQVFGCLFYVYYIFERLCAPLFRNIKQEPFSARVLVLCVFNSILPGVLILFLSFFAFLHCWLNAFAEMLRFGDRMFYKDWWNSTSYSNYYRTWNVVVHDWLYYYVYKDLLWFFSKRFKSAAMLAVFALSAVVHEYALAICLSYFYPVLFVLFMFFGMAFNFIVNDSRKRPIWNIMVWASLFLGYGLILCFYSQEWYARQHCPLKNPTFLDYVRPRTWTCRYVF
Assay: Inhibition of cholesterol esterification in the murine macrophage-like cell line J774.A1
Format: cell-based
Settings: J774.A1 cells, ac-LDL loaded, 14C-oleic acid pulse
Description: The esterification of cholesterol was determined in the murine macrophage-like cell line J774.A1. Cells were seeded in 35 mm wells at a density of 300,000 cells per well in 2 mls of Dulbecco's Eagle Medium (DMEM) supplemented with 10% fetal bovine serum (FBS). Cells were incubated at 37° C. in an atmosphere of 5% CO2 and 93% humidity. After […] the media was changed to 0.68 mls 10% FBS-DMEM containing 34 μg of acetylated human low density lipoprotein (ac-LDL) to increase the intracellular concentration of cholesterol and promote esterification. At 41 hours, various inhibitors were added to the cells in DMSO (10 μl/ml maximum). At 43 hours, the cells were pulsed with 0.1 mM ^14 C-oleic acid (10,000 dpm/nmol) complexed with BSA (bovine serum albumin) to follow cholesterol ester formation. The experiment was terminated at 45 hours by washing the monolayers 3 times with 3 ml of Tris-buffered saline at 4° C. The lipids were extracted by incubating the monolayers with 1.5 ml of hexane: isopropanol (3:2, v/v) for 30 min. under gentle agitation. During this period, 10,000 dpm ^3 H-cholesterol oleate and 10 μg of unlabeled cholesteryl oleate, oleic acid, triolein and cholesterol were added as an […] standard and carriers. The organic solvent was removed and the cells were washed with an additional 1.0 ml of hexane: isopropanol which was combined with the original extract. The cells were allowed to dry overnight, digested with 2.0 ml of 0.2N sodium hydroxide for 1 hour and an aliquot of the solubilized protein used for protein determination using the Lowry method. […] Extracts were collected in scintillation vials to determine the amount of radioactivity. The conversion of oleic acid to cholesteryl ester in the control averaged 0.54 mmol/hour/mg protein and was increased upon the addition of ac-LDL to about 10.689±0.69 mmol/hour/mg protein.

In order of rising IC50:
1. CCOCCOCCN(CCCCCSc1nc(-c2ccc(SC)cc2)c(-c2ccc(SC)cc2)[nH]1)C(=O)NC(C)C [Example 325]  41 nM
2. COCCOCCN(CCCCCSc1nc(-c2ccc(OC)cc2)c(-c2ccc(OC)cc2)[nH]1)C(=O)Nc1ccc(F)cc1F [Example 303, N-[5-[4,5-bis(4-methoxyphenyl)-1H-imidazol-2-ylthio]pentyl]-N '-(2,4-difluorophenyl)-N-[2-(2-methoxyethoxy)ethyl]-urea]  250 nM
3. COCCOCCN(CCCCCSc1nc(-c2ccc(OC)cc2)c(-c2ccc(OC)cc2)[nH]1)C(=O)NC(C)C [Example 304, N-[5-[4,5-bis(4-methoxyphenyl)-1H-imidazol-2-ylthio]-pentyl]-N-[2-(2-methoxyethoxy)-ethyl]-N'-(1-methylethyl)-urea]  360 nM
4. CCCCCCCN(CCOCCSc1nc(-c2ccc(OC)cc2)c(-c2ccc(OC)cc2)[nH]1)C(=O)Nc1ccc(F)cc1F [Example 364]  500 nM
5. CCN(CC)CCN(CCCCCSc1nc(-c2ccccc2)c(-c2ccccc2)[nH]1)C(=O)NC(C)C [Example 1, N-[2-(diethylamino)ethyl]-N-[5-(4,5-diphenyl-1H-imidazol-2-ylthio)pentyl]-N'-(1-methylethyl)-urea]  580 nM
6. CCCCN(C)CCN(CCOCCSc1nc(-c2ccc(OC)cc2)c(-c2ccc(OC)cc2)[nH]1)C(=O)Nc1ccc(F)cc1F [Example 32, N-[2-(2-(4,5-bis(4-methoxyphenyl)-1H-imidazol-2-ylthio)ethoxy)ethyl]-N-[2-(N-butyl-N-methylamino)ethyl]-N'-(2,4-difluorophenyl) urea]  630 nM
7. CCCCOCCN(CCCCCSc1nc(-c2ccccc2)c(-c2ccccc2)[nH]1)C(=O)NC(C)C [Example 262, N-(2-butoxyethyl)-N-[5-(4,5-diphenyl-1H-imidazol-2-ylthio)pentyl]-N'-(1-methylethyl)-urea]  840 nM
8. COc1ccc(-c2nc(SCCCCCN(CCOCCO)C(=O)Nc3ccc(F)cc3F)[nH]c2-c2ccc(OC)cc2)cc1 [Example 283, N-[5-[4,5-bis(4-methoxyphenyl)-1H-imidazol-2-ylthio]pentyl]-N '-(2,4-difluorophenyl)-N-[2-(2-hydroxyethoxy)ethyl]-urea]  840 nM
9. O=C(Nc1ccc(F)cc1F)N(CCCCCSc1nc(-c2ccccc2)c(-c2ccccc2)[nH]1)CCN1CCOCC1 [Example 161, N'-(2,4-difluorophenyl)-N-[5-(4,5-diphenyl-1H-imidazol-2-ylthio)pentyl]-N-[2-(4-morpholinyl)ethyl]-urea]  880 nM
10. CCCCCCCN(CCOCCSc1nc(-c2ccccc2)c(-c2ccccc2)[nH]1)C(=O)NC(C)C [Example 362]  990 nM
11. COc1ccc(-c2nc(SCCCCCN(CCN3CCOCC3)C(=O)Nc3ccc(F)cc3F)[nH]c2-c2ccc(OC)cc2)cc1 [Example 162, N-[5-[4,5-bis(4-methoxyphenyl)-1H-imidazol-2-ylthio]pentyl]-N'-(2,4-difluorophenyl)-N-[2-(1-morpholinyl)ethyl]-urea]  1340 nM
12. CCCCCCCN(CCN(C)CCSc1nc(-c2ccccc2)c(-c2ccccc2)[nH]1)C(=O)Nc1ccc(F)cc1F [Example 101, N'-(2,4-difluorophenyl)-N-[2-[2-(4,5-diphenyl-1H-imidazol-2-ylthio)ethyl]-N-[methylamino]ethyl]-N-heptyl-urea]  1470 nM
13. CCCCOCCN(CCCCCSc1nc(-c2ccccc2)c(-c2ccccc2)[nH]1)C(=O)Nc1ccc(F)cc1F [Example 261, N-(2-butoxyethyl)-N'-(2,4-difluorophenyl)-N-[5-(4,5-diphenyl-1H-imidazol-2-ylthio)pentyl]-urea]  1750 nM
14. CCN(CC)CCN(CCCCCSc1nc(-c2ccccc2)c(-c2ccccc2)[nH]1)C(=O)Nc1ccc(F)cc1F [Example 2]  2180 nM
15. CCCCCCCN(CCN(C)CCSc1nc(-c2ccccc2)c(-c2ccccc2)[nH]1)C(=O)NC(C)C [Example 102]  2400 nM
16. COc1ccc(-c2nc(SCCCCCN(CCOCCO)C(=O)NC(C)C)[nH]c2-c2ccc(OC)cc2)cc1 [Example 284]  2420 nM
17. CN(CCSc1nc(-c2ccccc2)c(-c2ccccc2)[nH]1)CCN(CCN1CCOCC1)C(=O)Nc1ccc(F)cc1F [Example 181]  2740 nM
18. CCOCCOCCN(CCCCCSc1nc(-c2ccccc2)c(-c2ccccc2)[nH]1)C(=O)NC(C)C [Example 322]  3020 nM
19. CCCN(CCOC(=O)CSc1nc(-c2ccccc2)c(-c2ccccc2)[nH]1)C(=O)Nc1ccc(F)cc1F [Example 421]  3680 nM
20. CCCCCCCN(CCOCCSc1nc(-c2ccccc2)c(-c2ccccc2)[nH]1)C(=O)Nc1ccc(F)cc1F [Example 361]  3980 nM
21. CCOCCOCCN(CCCCCSc1nc(-c2ccccc2)c(-c2ccccc2)[nH]1)C(=O)Nc1ccc(F)cc1F [Example 321]  4010 nM
22. CC(C)NC(=O)N(CCN(C)CCSc1nc(-c2ccccc2)c(-c2ccccc2)[nH]1)CCN1CCOCC1 [Example 183]  6280 nM
23. O=C(Nc1ccc(F)cc1F)N(CCCCCSc1nc(-c2ccccc2)c(-c2ccccc2)[nH]1)CCOCCO [Example 281]  6740 nM
24. CC(C)NC(=O)N(CCCCCSc1nc(-c2ccccc2)c(-c2ccccc2)[nH]1)CCOCCO [Example 282, N-[5-(4,5-diphenyl-1H-imidazol-2-ylthio)-pentyl]-N-[2-(2-hydroxyethoxy)-ethyl]-N'-(1-methylethyl)-urea]  6840 nM
